{
  "source": "paper PMC11032350",
  "about": "“SMS121, a new inhibitor of CD36, impairs fatty acid uptake and viability of acute myeloid leukemia” (Scientific Reports, 2024)",
  "target": "T1, CD36 (Homo sapiens, UniProt P16671)",
  "T1 construct": "commercial biotinylated His, Avitag human CD36, captured on streptavidin CAP chip",
  "T1 sequence (P16671 30-439 limits assumed)": "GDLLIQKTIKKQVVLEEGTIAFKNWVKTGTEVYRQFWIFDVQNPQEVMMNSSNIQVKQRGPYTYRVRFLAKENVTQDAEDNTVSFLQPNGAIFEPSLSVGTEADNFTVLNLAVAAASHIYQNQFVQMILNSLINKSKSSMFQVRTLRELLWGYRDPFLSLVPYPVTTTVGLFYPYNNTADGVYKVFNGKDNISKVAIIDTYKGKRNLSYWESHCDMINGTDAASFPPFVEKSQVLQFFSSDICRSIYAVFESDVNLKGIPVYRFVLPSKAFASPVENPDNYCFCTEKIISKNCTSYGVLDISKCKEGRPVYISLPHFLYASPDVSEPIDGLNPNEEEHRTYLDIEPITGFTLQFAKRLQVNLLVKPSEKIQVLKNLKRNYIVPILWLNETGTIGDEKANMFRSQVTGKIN",
  "assay": "SPR (Biacore […]), steady-state […] fit",
  "assay_type": "binding",
  "data": [
    {"smiles": "COc1cc(/C=C/C(=O)c2ccc(N(C)C)cc2)ccc1OCC(=O)O", "note": "[SMS121, (E)-2-(4-(3-(4-(dimethylamino)phenyl)-3-oxoprop-1-en-1-yl)-2-methoxyphenoxy) acetic acid]", "values": [
      {"measurement": "Kd", "result": "~5", "unit": "µM"}
    ]}
  ]
}
